Some test systems named below: UACC-62; SF-268; A498; SK-MEL-28; M14; SK-MEL-2; OVCAR-5; SF-539; HL-60; NCI-H226; SK-OV-3; HT-29; A549; SNB-75; OVCAR-4; U-251; RPMI-8226; IGROV-1; COLO 205; UO-31.
Common to all, as to experiment: NCI tumour cell line growth inhibition, 48 h

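In this assay, cells in 96-well plates receive the compound at five concentrations for 48 hours. Endpoints are linearly interpolated between the surrounding concentrations. GI50 = concentration required for 50% inhibition of growth.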 Active and inactive are the calls of the source. Cut-off read from the data, not from the text of the source: active = GI50 up to about 1.1 µM and inactive = higher. *1 amine or outer side, *2 acyl side, *3 side chain or, on linkers, in order; H or OH if unused. Where a SMILES comes first, the peptide text is derived from it. Bridges are numbered along the chain shown (N, C = ends). Roman numbers before positions name the chains, in order. [ ]: non-standard residue; d: D form. Actinocin(9to1) = Cc1c2oc3c(C)ccc(C(=O)[*:1])c3nc-2c(C(=O)[*:2])c(N)c1=O; NMeV = CN[CH](C(=O)O)C(C)C; Sar = CNCC(=O)O

As for `N=C(N)NCC(N)C(=O)O` (stereo not given), the GI50 with UACC-62, with SF-268, in the test on A498, in the test with SK-MEL-28, in the test on M14 and in the test on SK-MEL-2 was > 100 µM (inactive) each time. For the same molecule, the GI50 in the test with OVCAR-5, with SF-539, with HL-60, with NCI-H226, in the test with SK-OV-3 and in the test with HT-29 was > 100 µM (inactive) in each case. In addition, the GI50 in the test with A549, with SNB-75, in the test on OVCAR-4, with U-251, with RPMI-8226 and with IGROV-1 was > 100 µM (inactive) throughout. Moreover, the GI50 with COLO 205 and in the test on UO-31 was > 100 µM (inactive) throughout.

With `Nn1c(S)nnc1COc1cccc(OCc2nnc(S)n2N)c1`, the GI50 with UACC-62 was 83.2 µM (inactive); in the test with SF-268, > 100 µM (inactive); with A498, > 100 µM (inactive); with SK-MEL-28 it was > 100 µM (inactive); in the test on M14, > 100 µM (inactive); in the test on SK-MEL-2, > 100 µM (inactive). Further, the GI50 in the test with OVCAR-5 was > 100 µM (inactive); in the test on SF-539, 80 µM (inactive); in the test with HL-60, 86.3 µM (inactive); in the test on NCI-H226, > 100 µM (inactive); in the test with SK-OV-3, > 100 µM (inactive); in the test on HT-29, 43.7 µM (inactive). The GI50 in the test with A549 is > 100 µM (inactive); in the test on SNB-75, > 100 µM (inactive); with OVCAR-4, > 100 µM (inactive); with U-251 it was > 100 µM (inactive); in the test with RPMI-8226, 53.6 µM (inactive); in the test on IGROV-1, > 100 µM (inactive). For the same molecule, the results for the GI50 in the test on COLO 205 and in the test with UO-31 were 98.4 µM (inactive) and > 100 µM (inactive), respectively.

With `COc1ccc2c(Cc3c4ccccc4cc4ccccc34)cncc2c1O`, the GI50 with UACC-62 is 2.9 µM (inactive); in the test with SF-268 it was 3.79 µM (inactive); with A498, 3.99 µM (inactive); in the test with SK-MEL-28, 14.1 µM (inactive); in the test on M14 it was 2.26 µM (inactive); in the test on SK-MEL-2 it was 2.87 µM (inactive). Moreover, the GI50 was 13.5 µM (inactive) with OVCAR-5; 0.245 µM (active) in the test on SF-539; 1.87 µM (inactive) in the test on HL-60; 3.27 µM (inactive) with NCI-H226; 2.96 µM (inactive) in the test with SK-OV-3; 14.2 µM (inactive) in the test with HT-29. For the same molecule, the GI50 in the test with A549 is 3.44 µM (inactive); in the test with SNB-75 it was 3.9 µM (inactive); in the test on OVCAR-4, 5.37 µM (inactive); in the test on U-251, 1.45 µM (inactive); with RPMI-8226 it was 1.85 µM (inactive); in the test on IGROV-1 it was 2.92 µM (inactive). Further, the GI50 was 17.7 µM (inactive) with COLO 205 and 4.4 µM (inactive) with UO-31.

With `Oc1cccc(-c2nc3ccccc3s2)c1`, the GI50 is 34.8 µM (inactive) in the test with UACC-62; 19.8 µM (inactive) in the test on SF-268; 52.5 µM (inactive) in the test on A498; 74.6 µM (inactive) in the test with SK-MEL-28; 23.2 µM (inactive) in the test on M14; 28.4 µM (inactive) in the test with SK-MEL-2. Further, the GI50 in the test on OVCAR-5 is 14.8 µM (inactive); with SF-539, 28.7 µM (inactive); in the test on HL-60, 47.8 µM (inactive); in the test with NCI-H226, 10.8 µM (inactive); in the test with SK-OV-3, 27.9 µM (inactive); with HT-29 it was 18.8 µM (inactive). For the same molecule, the GI50 in the test with A549 is 26.2 µM (inactive); in the test with SNB-75, 19 µM (inactive); with OVCAR-4, 19.1 µM (inactive); in the test on U-251, 39.5 µM (inactive); in the test on RPMI-8226, 39.4 µM (inactive); with IGROV-1, 5.02 µM (inactive). Moreover, the GI50 is 35.9 µM (inactive) in the test on COLO 205 and 26.1 µM (inactive) with UO-31.

For `Cc1c2oc3c(C)ccc(C(=O)NC4C(=O)NC(C(C)O)C(=O)N5CCCC5C(=O)N(C)CC(=O)N(C)C(C(C)C)C(=O)OC4C)c3nc-2c(C(=O)NC2C(=O)NC(C(C)O)C(=O)N3CCCC3C(=O)N(C)CC(=O)N(C)C(C(C)C)C(=O)OC2C)c(N)c1=O` (stereo not given) (I: TTP[Sar][NMeV] / II: TTP[Sar][NMeV]; ester I:1-I:C, II:1-II:C; linker I:N-II:N via Actinocin(9to1); configuration not given here), the GI50 is 0.103 µM (active) with UACC-62; 0.198 µM (active) in the test with SF-268; 0.774 µM (active) with A498; 0.147 µM (active) with SK-MEL-28; 0.811 µM (active) in the test with M14; 0.133 µM (active) in the test on SK-MEL-2. The GI50 in the test on OVCAR-5 was 1.95 µM (inactive); in the test with SF-539, 0.0764 µM (active); with HL-60, 0.437 µM (active); in the test on NCI-H226, 0.0344 µM (active); in the test on SK-OV-3, 2.21 µM (inactive); in the test with HT-29 it was 0.34 µM (active). Besides, the GI50 was 0.783 µM (active) in the test on A549; 0.198 µM (active) with SNB-75; 0.931 µM (active) with OVCAR-4; 0.0904 µM (active) in the test with U-251; 0.0365 µM (active) in the test with RPMI-8226; 0.135 µM (active) with IGROV-1. In addition, the GI50 in the test on COLO 205 was 0.0528 µM (active); in the test with UO-31 it was 2 µM (inactive).

For the molecule `O=C(CCCN1CCC(C(O)c2ccc(F)cc2)CC1)c1ccc(F)cc1` (stereo not given), the GI50 in the test on UACC-62 was 57 µM (inactive); with SF-268, 59.6 µM (inactive); with A498 it was 49 µM (inactive); with SK-MEL-28 it was 59.3 µM (inactive); in the test with M14, 51.6 µM (inactive); in the test with SK-MEL-2 it was 57.4 µM (inactive). Besides, the GI50 was 58.2 µM (inactive) in the test with OVCAR-5; 59.4 µM (inactive) in the test on SF-539; 35.9 µM (inactive) in the test on HL-60; 53.3 µM (inactive) in the test with NCI-H226; 69.8 µM (inactive) with SK-OV-3; 42.3 µM (inactive) in the test on HT-29. In addition, the GI50 in the test with A549 is 64 µM (inactive); in the test on SNB-75 it was 44.3 µM (inactive); in the test with OVCAR-4, 61 µM (inactive); in the test on U-251, 55.5 µM (inactive); in the test on RPMI-8226, 66.5 µM (inactive); in the test on IGROV-1, 61.9 µM (inactive). The figures for the GI50 with COLO 205 and in the test with UO-31 were 55.7 µM (inactive) and 23.1 µM (inactive), respectively.

`COc1ccc2nc3cc(Cl)ccc3c(NCCCCCC(=O)NC(COc3ccc4ccc5cccnc5c4n3)COc3ccc4ccc5cccnc5c4n3)c2c1`: the GI50 in the test on UACC-62 is 21.7 µM (inactive); in the test on SF-268, 17.9 µM (inactive); with A498, 17.3 µM (inactive); with SK-MEL-28, 24.2 µM (inactive); with M14 it was 26.7 µM (inactive); with SK-MEL-2 it was 25.3 µM (inactive). The GI50 in the test on OVCAR-5 is 24.4 µM (inactive); in the test with SF-539 it was 16.9 µM (inactive); with HL-60, 9.64 µM (inactive); in the test on NCI-H226 it was 20.8 µM (inactive); with SK-OV-3, 36.9 µM (inactive); with HT-29, 27.9 µM (inactive). Besides, the GI50 was 15.5 µM (inactive) with A549; 21 µM (inactive) in the test with SNB-75; 30 µM (inactive) with OVCAR-4; 13.8 µM (inactive) in the test with U-251; 5.58 µM (inactive) with RPMI-8226; 16.3 µM (inactive) in the test on IGROV-1. Moreover, the GI50 in the test with COLO 205 was 18.3 µM (inactive); in the test on UO-31, 2.79 µM (inactive).

Consider `COc1ccc2c(c1)OC[C@@H]1c3cc(O)c(OCc4ccccc4)cc3O[C@H]21`, for which the GI50 in the test with UACC-62 was 18.1 µM (inactive); in the test with SF-268 it was 28.3 µM (inactive); in the test on A498, 6.62 µM (inactive); in the test with SK-MEL-28, 32.9 µM (inactive); in the test on M14 it was 27.9 µM (inactive); in the test with SK-MEL-2 it was 17.3 µM (inactive). Also, the GI50 with OVCAR-5 is 66.5 µM (inactive); in the test with SF-539, 90.4 µM (inactive); in the test on HL-60 it was 16.8 µM (inactive); in the test with NCI-H226, 27.3 µM (inactive); in the test on SK-OV-3 it was 17.3 µM (inactive); in the test on HT-29, 34.2 µM (inactive). Besides, the GI50 is 26.2 µM (inactive) in the test on A549; 14.2 µM (inactive) in the test on SNB-75; 16.6 µM (inactive) in the test with OVCAR-4; 23.7 µM (inactive) with U-251; 10.2 µM (inactive) with RPMI-8226; 26.5 µM (inactive) with IGROV-1. Further, the GI50 in the test on COLO 205 is 27.9 µM (inactive); with UO-31, 20.1 µM (inactive).

For `O=Cc1cc(O)ccc1Br`, the GI50 with UACC-62 is 6.9 µM (inactive); in the test with SF-268, 9.93 µM (inactive); in the test on A498, > 100 µM (inactive); in the test with SK-MEL-28 it was 15 µM (inactive); in the test on M14, 5.45 µM (inactive); in the test with SK-MEL-2 it was 44.4 µM (inactive). For the same molecule, the GI50 is 32.1 µM (inactive) in the test with OVCAR-5; 4.3 µM (inactive) with SF-539; 1.88 µM (inactive) in the test on HL-60; 28.8 µM (inactive) in the test on NCI-H226; 34.7 µM (inactive) in the test with SK-OV-3; 18.2 µM (inactive) with HT-29. Besides, the GI50 in the test on A549 is > 100 µM (inactive); with SNB-75 it was 14.4 µM (inactive); in the test with OVCAR-4 it was 15 µM (inactive); in the test on U-251, 3.74 µM (inactive); in the test on RPMI-8226 it was 2.81 µM (inactive); in the test on IGROV-1, 28.1 µM (inactive). Also, the figures for the GI50 in the test on COLO 205 and in the test with UO-31 were 41.7 µM (inactive) and 19.5 µM (inactive), respectively.

With `C[N+](C)(C)c1ncnc2c1ncn2C1CC(O)C(CO)O1` (stereo not given), the GI50 in the test on UACC-62, in the test on SF-268, with A498, in the test on SK-MEL-28, with M14 and with SK-MEL-2 was > 100 µM (inactive) each time. In addition, the GI50 with OVCAR-5, with SF-539, in the test with HL-60, in the test with NCI-H226, in the test with SK-OV-3 and in the test with HT-29 was > 100 µM (inactive) each time. Moreover, the GI50 in the test on A549, in the test on SNB-75, in the test on OVCAR-4, in the test on U-251, with RPMI-8226 and in the test with IGROV-1 was > 100 µM (inactive) each time. In addition, the GI50 with COLO 205 and in the test on UO-31 was > 100 µM (inactive) throughout.
